Laboratory results published in paper PMC10726920 (Cancer Medicine, 2023).
Entries after “also recorded” stand apart in the source; their conditions may differ. Where two headings read alike, the source gives them in different places.

Tests used:
[1] = Plasma pharmacokinetics, Cycle 1 (LC-MS, non-compartmental); type: in vivo, human; conditions: for half-life / Tmax / concentration at 7 days / AUC(0-t) / Cmax: human, plasma, 3 mg; for concentration at 7 days: after 7 days of dosing
Procedure: (§1) Blood samples were obtained on Days 1, 2, and 8 of Cycle 1. […] plasma concentrations were measured using liquid chromatography‐mass spectroscopy. Plasma concentration‐time data were analyzed by standard methods using WinNonlin. Pearson's correlation coefficient (r) was used to assess correlation of group variables. Statistical significance was defined as p < 0.05. Additional details are contained in the Supplementary Method: Data S1.
Blood samples (6 ml, sodium heparin) were obtained during the first cycle of treatment before drug administration on Days 1, 2 and 8; and 0.5, 1, 2, 3, 4, and 8 hours after the oral dose was administered on Day 1 and Day 8. After collection, tubes were immediately cooled in an ice water bath and plasma was isolated by centrifugation (10 minutes; 1,100 - 1,300 x g; 4°C) in a refrigerated centrifuge. Plasma samples were frozen immediately and stored at approximately -70°C or lower until analysis.
Plasma concentration-time data were analyzed by standard non-compartmental methods using WinNonlin (Pharsight, Mountain View, CA). Standard descriptive statistics were used to summarize plasma sapanisertib PK parameters. […] Oral steady-state clearance (ClSS/F) was calculated using the equation, ClSS = Dose/AUCτ.

[2] = Pearson correlation of sapanisertib clearance with toxicity and group variables; type: in vivo, human; conditions: p > 0.05
Procedure: as §1
Statistical significance was defined as P<0.05.

[3] = system: patients with advanced solid malignancies; conditions: original drug formulation, daily dosing; cited from earlier work
[4] = system: human ALL cell line xenografts; parameters: method as in PMID 26917778; conditions: cited from earlier work
[5] = system: mTOR pathway substrates 4EBP1, S6, AKT; assay: Immunoblotting of paired bone marrow samples (pretreatment vs Day 8) from trial patients; type: in vivo, human
Excerpt: Bone marrow aspirates harvested prior to treatment and again prior to drug administration on Day 8 ± 2 of treatment from the same patients were shipped overnight to a central laboratory, where marrow mononuclear cells isolated on Ficoll–Hypaque gradients were lysed under denaturing conditions that preserve protein phosphorylations. Paired whole cell lysates were subjected to SDS‐polyacrylamide gel electrophoresis and immunoblotting as described in the Supplementary Method: Data S1.
(§2) Cells were isolated from bone marrow or blood samples using Histopaque-1077 (Millipore-Sigma, St. Louis, MO) step gradients. […] Cells for ex vivo drug exposure were resuspended at a concentration of 1 x 10^6 cells/ml in RPMI 1640 medium containing 10% (v/v) heat-inactivated fetal bovine serum, 50 U/ml penicillin G, 50 µg/ml streptomycin, and 1 mM glutamine.
(§3) After samples were dialyzed sequentially into 4 M urea and 0.1% (w/v) SDS, lyophilized and reconstituted in SDS-sample buffer consisting of 4 M urea, 2% (w/v) SDS, […] (pH 6.8 at 4 °C), 10 mM EDTA, and 1% (w/v/) 2-mercaptoethanol, aliquots containing […] of total cellular protein were subjected to SDS-PAGE on gels containing 5-20% polyacrylamide gradients, transferred to nitrocellulose, and probed with antibodies as previously described ^34, 35. […]

[6] = system: patients with advanced multiple myeloma; parameters: method as in PMID 26800393; conditions: orally daily; cited from earlier work
[7] = system: phospho-4EBP1 (direct mTORC1 substrate) in ALL sample; assay: Immunoblotting of pretreatment ALL specimen treated ex vivo 48 h with sapanisertib; type: cell-based, human; conditions: 5 μM Q‐VD‐OPh
Excerpt: (§4) FIGURE 2 Effect of MLN0128 concentrations on mTOR‐associated phosphorylation in vitro, ex vivo, and in the context of the present trial. […] (C) Samples harvested from the indicated patients prior to treatment (lanes 1, 4, 6, 8, and 10), on Day 8 prior to therapy (lanes 2, 5, 7, 9, and 11), or at the time of removal from study after 6 weeks (lane 3) were subjected to SDS‐PAGE and blotting for the indicated antigens. Jurkat cells (lane 12) were included in the blot because they were known to be positive for all analytes.[29] The housekeeping protein nucleolin (NCL) served as a loading control.
as §2, with “glutamine. […]” for “glutamine.”

[8] = system: phospho-4EBP1 (direct mTORC1 substrate) in Jurkat ALL cell line; assay: Immunoblotting of Jurkat cells treated 24 h with sapanisertib; type: cell-based, human
Excerpt: as §4, §3

[9] = system: human ALL lines and clinical ALL samples; parameters: method as in PMID 26917778; conditions: cited from earlier work

CC(C)n1nc(-c2ccc3oc(N)nc3c2)c2c(N)ncnc21 [sapanisertib]
C max, Mean ± SD ([1]; Cycle 1 Day 1, 3 mg daily oral): 26.1 ± 8.0 ng/mL
CL, Mean ± SD ([1]; Cycle 1 Day 1, 3 mg daily oral): 22.0 ± 14.2 L/h
CL, Median (range) ([1]; Cycle 1 Day 1, 3 mg daily oral): 22.0 (5.8–49.2) L/hr
CL, Mean ± SD ([1]; Cycle 1 Day 8, 3 mg daily oral): 23.3 ± 23.8 L/h
CL, Median (range) ([1]; Cycle 1 Day 8, 3 mg daily oral): 16.4 (3.2–82.6) L/hr
peak plasma concentration ([1]; Day 1): 84 nM
time to peak concentration after drug administration ([1]; Day 1): 2 h
time to peak concentration after drug administration ([1]; Day 8): 1.2 h
time of peak concentration (mean) ([1]; Day 8 dose, discussion): 1.5 h
mean accumulation ratio ([1]; Day 8 versus Day 1 AUCall): 1.4
half‐life (terminal serum) ([1]; discussion): 8 h
half-life ([1]; oral, Day 1, read-out: mean elimination half‐life (converted)): 8.2 ± 4.9 h
Tmax ([1]; oral, Day 1, read-out: time to peak concentration, range): 0.5 to 4.1 h
half-life ([1]; oral, Day 8, read-out: mean half‐life (converted)): 24.3 ± 42.5 h
Tmax ([1]; oral, Day 8, read-out: time to peak concentration, range): 0.5 to 2.9 h
concentration at 7 days ([1]; oral, read-out: median trough concentration): 1.9 ng/mL
concentration at 7 days ([1]; oral, read-out: trough concentration, range): 0 to 41.6 ng/mL
AUC(0-t) ([1]; po, Cycle 1 Day 1, 3 mg daily oral, read-out: AUC0–24 h, Mean ± SD): 213 ± 143 ng·h/mL
AUC(0-t) ([1]; po, Cycle 1 Day 1, 3 mg daily oral, read-out: AUC0–24 h, Median (range)): 213 ng·h/mL
Cmax ([1]; po, Cycle 1 Day 1, 3 mg daily oral, read-out: C max, Mean ± SD): 26 ng/mL
Cmax ([1]; po, Cycle 1 Day 1, 3 mg daily oral, read-out: C max, Median (range)): 26.5 ng/mL
half-life ([1]; po, Cycle 1 Day 1, 3 mg daily oral, read-out: Half‐life, Mean ± SD (converted)): 8.2 ± 4.9 h
half-life ([1]; po, Cycle 1 Day 1, 3 mg daily oral, read-out: Half‐life, Median (range) (converted)): 7.1 h
Tmax ([1]; po, Cycle 1 Day 1, 3 mg daily oral, read-out: T max, Mean ± SD): 1.7 ± 1.1 h
Tmax ([1]; po, Cycle 1 Day 1, 3 mg daily oral, read-out: T max, Median (range)): 2 h
AUC(0-t) ([1]; po, Cycle 1 Day 8, 3 mg daily oral, read-out: AUC0–24 h, Mean ± SD): 361 ± 337 ng·h/mL
AUC(0-t) ([1]; po, Cycle 1 Day 8, 3 mg daily oral, read-out: AUC0–24 h, Median (range)): 182 ng·h/mL
Cmax ([1]; po, Cycle 1 Day 8, 3 mg daily oral, read-out: C max, Mean ± SD): 34.4 ± 20.9 ng/mL
Cmax ([1]; po, Cycle 1 Day 8, 3 mg daily oral, read-out: C max, Median (range)): 29.4 ng/mL
half-life ([1]; po, Cycle 1 Day 8, 3 mg daily oral, read-out: Half‐life, Mean ± SD (converted)): 24.3 ± 42.5 h
half-life ([1]; po, Cycle 1 Day 8, 3 mg daily oral, read-out: Half‐life, Median (range) (converted)): 11.3 h
Tmax ([1]; po, Cycle 1 Day 8, 3 mg daily oral, read-out: T max, Mean ± SD): 1.5 ± 0.7 h
Tmax ([1]; po, Cycle 1 Day 8, 3 mg daily oral, read-out: T max, Median (range)): 1.2 h
correlation between systemic clearance and sex, age, or total body weight [2]: no significant correlation
maximum tolerated dose (MTD) [3]: 6 mg/day
growth of human ALL cell line xenografts [4]: inhibited growth
induction of BIMEL and PUMA in trial samples ([5]; five pairs of samples): minimal in one pair of samples (Patient 2) and absent from the other four pairs
impact on mTOR‐mediated phosphorylation (4EBP1, S6, AKT) in trial samples ([5]; pretreatment vs Day 8 trough, five patients): limited impact; also recorded: little evidence that mTOR‐mediated phosphorylation has been disrupted; also recorded: failed to convincingly demonstrate inhibition
MTD [6]: 6 mg
concentration diminishing phosphorylation of 4EBP1 without change in total 4EBP1 [7]: 62.5 to 200 nM
concentration diminishing phosphorylation of 4EBP1 without change in total 4EBP1 [8]: 62.5 to 200 nM
cytotoxic effects compared with rapamycin [9]: greater cytotoxic effects than rapamycin
